Experiment in all cases: NCI tumour cell line growth inhibition, 48 h
For assay [1], the system named is CAKI-1 renal.
Assay [2] concerns CCRF-CEM leukemia.
The subject of assay [3] is EKVX NSCLC.
For assay [4], the system named is IGROV1 ovarian.
Assay [5] deals with K-562 leukemia.
Assay [6] has as its system MOLT-4 leukemia.
For assay [7], the system named is NCI-H522 lung.
Assay [8] concerns SF-539 CNS.
In assay [9] the test system is SK-MEL-28 melanoma.
In assay [10] the test system is UACC-257 melanoma.

Twelve compounds from PubChem BioAssay (NCI) can be followed below.

Values joined by “and” are separate entries in the source; they are usually repeats but may differ in a detail not shown here. Equal values may be shown once.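 Cells were grown in 96-well plates and exposed to each compound for 48 hours at five concentrations; endpoints were interpolated linearly between bracketing concentrations, or set to the highest concentration if not reached. GI50 is the concentration that inhibits growth by half. TGI denotes the concentration required for complete inhibition of growth.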

For the compound `CC(C)(C)OP(=O)(OC(C)(C)C)C(O)c1ccc(/C=C(\C#N)C(N)=O)cc1` (stereo unspecified), the TGI in assay [1], in assay [2], in assay [3], in assay [4], in [5] and in [6] was greater than 100 µM throughout. Moreover, the TGI in assay [7], in assay [8], in assay [9] and in assay [10] was greater than 100 µM each time.

Take `Cc1ccc(Nc2cc(Cl)c([N+](=O)[O-])cc2[N+](=O)[O-])cc1`: the GI50 in assay [1] was 4.19 µM; in assay [2], 1.96 µM; in assay [3], 14.7 µM; in [4], 3.89 µM; in [5] it was 0.614 µM; in assay [6] it was 3.87 µM. Moreover, the GI50 was 0.805 µM in [7], 4 µM in [8], 2.77 µM in [9] and 5.25 µM in assay [10]. For the same compound, the TGI in assay [1] was 17.4 µM; in assay [2] it was 19.8 µM; in assay [3], 29.7 µM; in [4], 10.4 µM; in assay [5], greater than 100 µM; in assay [6], greater than 52.4 µM. Besides, the TGI in [7] turned out to be 2.15 µM; in assay [8], 15.3 µM; in assay [9], 7.27 µM; in assay [10], 15.7 µM.

Take `C/C=C/C/C=C/[C@H](C)C[C@H](O)[C@@H]1C[C@@H]2O[C@H]2/C=C/[C@@H]2OC(C)(C)O[C@H]2/C=C/C[C@H](C)CC(=O)O1`: the GI50 was 2.9 µM in assay [1]; 2.78 µM in assay [2]; 21 µM in assay [3]; 10.5 µM in assay [4]; 4.79 µM in [5]; 3.94 µM in assay [6]. Moreover, the GI50 is 3.6 µM in assay [7], 26.3 µM in assay [8], 47.8 µM in assay [9] and 56.7 µM in [10]. The TGI in assay [1] was 31.1 µM; in assay [2], 56.4 µM; in assay [3], greater than 100 µM; in assay [4] it was greater than 100 µM; in assay [5], greater than 100 µM; in [6] it was 37.4 µM. Also, the TGI in assay [7] is 31.9 µM; in [8] it was greater than 100 µM; in [9], greater than 100 µM; in assay [10], greater than 100 µM.

As for `Cc1cc(N(CCC#N)CCC#N)ccc1N=Nc1cc(Cl)ccc1Cl`, the TGI in assay [1] came to 9.68 µM; in [2], 19.2 µM; in assay [3], 26.5 µM; in assay [4] it was 28.6 µM; in [5] it was 11.4 µM; in assay [6], 34.9 µM. For the same compound, the TGI amounted to 3.41 µM in [7], 19.4 µM in assay [8], 21.1 µM in [9] and 23.8 µM in assay [10].

As for `CC[C@@]1(OC(=O)C(N)CCCCN)C(=O)OCc2c1cc1n(c2=O)Cc2cc3ccccc3nc2-1` (stereo partly specified), the TGI in assay [1] is 0.158 µM; in assay [2], 0.115 µM; in [3] it was greater than 30.6 µM; in [4] it was 2.37 µM; in assay [5], greater than 33.1 µM; in assay [6], 0.13 µM. In addition, the TGI in assay [7] is 2.39 µM; in assay [8] it was 0.149 µM; in assay [9], 16.1 µM; in assay [10], 1.56 µM.

In the case of `Cc1cc(C(=O)Nc2n[nH]c3ccccc23)n[nH]1`, the GI50 in [1] is 90.5 µM; in [2] it was greater than 100 µM; in [3], greater than 100 µM; in assay [4], 32.7 µM; in assay [5], greater than 100 µM; in assay [6], greater than 100 µM. For the same compound, the GI50 in [7], in assay [8], in assay [9] and in assay [10] was greater than 100 µM each time. For the same compound, the TGI in assay [1], in [2], in assay [3], in assay [4], in [5] and in [6] was greater than 100 µM each time. Further, the TGI in assay [7], in assay [8], in assay [9] and in assay [10] was greater than 100 µM throughout.

`N#COc1ccc(Oc2ccccc2)cc1`: the TGI in assay [1] is greater than 100 µM; in [2], 60 µM; in [3], greater than 100 µM; in assay [4], greater than 100 µM; in [5], greater than 100 µM; in assay [6], greater than 100 µM. For the same compound, the TGI in assay [7] is greater than 100 µM; in [8], 92.4 µM; in assay [9], greater than 100 µM; in [10], greater than 100 µM.

For `C1OC1CN1CCN(CC2CO2)CC1` (stereo unspecified), the TGI was greater than 100 µM in assay [1]; greater than 100 µM in [2]; greater than 100 µM in [3]; greater than 100 µM in assay [4]; greater than 100 µM in [5]; greater than 62.4 µM in assay [6]. Besides, the TGI in assay [7], in [8], in assay [9] and in assay [10] was greater than 100 µM in each case.

For `O=C(O)[C@@H]1OCCOCCO[C@@H](C(=O)O)[C@H](C(=O)O)OCCOCCO[C@H]1C(=O)O`, the TGI is greater than 100 µM in assay [1]; greater than 73.6 µM in assay [2]; greater than 100 µM in [3]; greater than 100 µM in assay [4]; greater than 100 µM in [5]; greater than 100 µM in [6]. In addition, the TGI in [7], in assay [8], in assay [9] and in assay [10] was greater than 100 µM each time.

Consider `CCOC(=O)Nc1nc2ccccc2[nH]1`, for which the GI50 in assay [1] is 3.84 µM and 3.73 µM; in [2], 3.6 µM and 4.41 µM; in assay [3] it was greater than 24 µM; in [4], > 26.6 µM and 4.1 µM; in assay [5] it was 3.48 µM and 1.85 µM; in assay [6], 4.57 µM and 5 µM. In addition, the GI50 in assay [7] was 3.78 µM and 4.99 µM; in assay [8], 2.63 µM and 2.92 µM; in assay [9] it was 8.43 µM; in assay [10], 3.77 µM. In addition, the TGI in assay [1], in assay [2], in [3], in assay [4], in assay [5] and in [6] was greater than 100 µM in each case. Besides, the TGI is greater than 79.3 µM in assay [7]; 9.69 µM and > 32.1 µM in [8]; greater than 100 µM in [9]; greater than 100 µM in assay [10].

`CNCC/C=C1\c2cc3c(cc2-c2c1c1cc(OC)c(OC)cc1c(=O)n2C)OCO3`: the GI50 was 0.278 µM in [1]; less than 0.01 µM in assay [2]; 2.36 µM in [3]; less than 0.0505 µM in [4]; 0.196 µM in assay [5]; less than 0.01 µM in [6]. Also, the GI50 in assay [7] is 0.122 µM; in assay [8] it was 0.4 µM; in assay [9], 11.8 µM; in assay [10], 3.13 µM. Also, the TGI in [1] is 5.92 µM; in assay [3] it was 18.3 µM; in assay [7], 16.2 µM; in assay [8] it was 5.85 µM; in assay [9], greater than 69.4 µM; in assay [10] it was 12.4 µM.

`N#Cc1ccc(/C=C(/C(=O)c2ccccc2)c2ccccc2)cc1`: the TGI in assay [1] is 32.1 µM; in [2], greater than 29.1 µM; in [3] it was 42.9 µM; in assay [4] it was greater than 57.4 µM; in assay [5], greater than 24.7 µM; in assay [6], 10.4 µM. For the same compound, the TGI was determined as 29.2 µM in [7], 42 µM in assay [8], 32.7 µM in assay [9] and 29.6 µM in assay [10].
